We go through 6 compounds from patent publication US20260231947A1, “IMPROVED BIOCIDE COMPOSITIONS” (Solugen, Inc., priority 2021, published 2026).

The subject of assay [1] is Wild Strain General Bacteria. As to the kind of experiment: MIC, microtiter plate, general aerobic bacteria from produced water. In kind it is cell-based, Pseudomonas aeruginosa and Enterobacter aggolomerans. How it is done: (§1) The ability of an BF to inhibit microorganisms was investigated. Specifically, three bacteria types were tested to compare the MIC of a biocide, a biochelant and IBFs of the present disclosure. The bacteria types utilized were isolated from produced water from the Marcellus shale formation, and identified as (i) general aerobic bacteria identified as Pseudomonas aeruginosa and Enterobacter aggolomerans (ii) Wild strain sulfate reducing bacteria and (iii) acid producing bacteria. General aerobic bacteria aid in the formation of biofilms. Most of these bacteria will be found either floating freely in water (planktonic organisms) or will be attached to various surfaces (sessile organisms). Wild strain Sulfate Reducing Bacteria and Acid Producing Bacteria isolated from the produced fluid was also used. Wild strain Sulfate Reducing Bacteria (WSRB) are the most common anaerobic organisms found in the oil and gas industry. WSRB are an issue as they will reduce sulfate into sulfides which can turn into hydrogen sulfide, souring the fluid in the oil and gas well.
(§2) The bacteria tested were placed in a microtiter plate, where a high throughput test was performed to determine MIC (minimum inhibitor concentration). […] The BE contained 1:1 biocide:biochelant each at 50 ppm.

In assay [2] the test system is Wild Strain APB. Description: MIC, microtiter plate, wild strain acid producing bacteria. In kind it is cell-based. As for the experimental part: as §1, §2
Assay [3] has as its system bacteria isolated from produced water from the Marcellus shale formation. As to the kind of experiment: MIC, Example 1, maximum reduction over the three bacteria types. To be noted: biocide used in conjunction with biochelants, versus biocide alone. In kind it is cell-based. How it is done: as §1, §2
Assay [4] concerns General Wild Strain Bacteria. Description: MIC, Example 2, TTPC and bleach. In kind it is cell-based. From the text: The biocides used were tributyl tetradecyl phosphonium chloride (TTPC, BELLACIDE 350) and household bleach.
The subject of assay [5] is Wild Strain SRB. As to the kind of experiment: MIC, microtiter plate, wild strain sulfate reducing bacteria. Format: cell-based. How it is done: as §1, §2
Assay [6] has as its system Pseudomonas aeruginosa. Description: MIC, Example 3, quaternary ammonium biocides.
Text: (§3) The ability of an IBF to inhibit microorganisms was investigated. The biocides used as components of the IBF were quaternary ammonium compounds. […] The bacterial strains tested were Pseudomonas aeruginosa, Staphylococcus aureus, Escherichia coli and Klebsiella pneumoniae.
Assay [7] concerns Staphylococcus aureus. Description: MIC, Example 3, quaternary ammonium biocides.
Text: as §3
In assay [8] the test system is Escherichia coli. Description: MIC, Example 3, quaternary ammonium biocides.
Text: as §3
The test system of assay [9] is Klebsiella pneumoniae. As to the kind of experiment: MIC, Example 3, quaternary ammonium biocides.
Text: as §3
Where [10] appears, read: Wild Strain General Bacteria, IBF 1:1 biocide:biochelant, read-out: MIC.
Setting [11] is: Wild Strain APB, IBF 1:1 biocide:biochelant, read-out: MIC.
Setting [12] is: General Wild Strain Bacteria, read-out: MIC.

Converted amounts (≈) assume the structure as drawn. Like-named read-outs stand apart in the source and are kept apart here.

On to `O=[N+]([O-])C(Br)(CO)CO` [10% BRONOPOL, 2-bromo-2-nitro-1,3-propanediol], for which the MIC is 125 µg/mL (≈ 0.625 mM) in [1] (setting [10]) and 62.5 µg/mL (≈ 0.313 mM) in assay [2] (setting [11]). Moreover, the “maximum MIC reduction” value in assay [3] is 98%.
`O=CCCCC=O` [50% Glut, glutaraldehyde]: the figures for the MIC in assay [1] (setting [10]) and in [2] (setting [11]) were 1000 µg/mL (≈ 9.99 mM) and 500 µg/mL (≈ 4.99 mM), respectively.
As for `CCCCCCCCCCCCCC[P+](CCCC)(CCCC)CCCC.[Cl-]` [Bellacide 350 (TTPC), tributyl tetradecyl phosphonium chloride], the MIC in assay [4] (setting [12]) was 500 µg/mL; in [4] (General Wild Strain Bacteria, with biochelant, read-out: MIC of the biocide as a component of an IBF) it was 15.6 µg/mL.
With `O=C(O)[C@H](O)[C@@H](O)[C@H](O)[C@H](O)CO` [G050, gluconic acid], the MIC in assay [1] was 10000 µg/mL (≈ 51 mM); in [5], 312 µg/mL (≈ 1.59 mM); in assay [2], 625 µg/mL (≈ 3.19 mM); in [4] it was 10000 µg/mL (≈ 51 mM); in assay [6], 5000 µg/mL (≈ 25.5 mM); in assay [7], 5000 µg/mL (≈ 25.5 mM). Moreover, the MIC in [8] and in assay [9] was 5000 µg/mL (≈ 25.5 mM) throughout.
Turning to `O=C(O)[C@@H](O)[C@@H](O)[C@H](O)[C@@H](O)C(=O)O` [GA50, glucaric acid], the MIC was determined as 2500 µg/mL (≈ 11.9 mM) in assay [1] (setting [10]); 625 µg/mL (≈ 2.97 mM) in assay [2] (setting [11]); 2500 µg/mL (≈ 11.9 mM) in assay [4] (setting [12]); 1250 µg/mL (≈ 5.95 mM) in assay [6]; 5000 µg/mL (≈ 23.8 mM) in assay [7]; 625 µg/mL (≈ 2.97 mM) in [8]. Further, in [9], the MIC is 1250 µg/mL (≈ 5.95 mM).
For “tetrakis hydroxymethyl-phosphonium sulfate [75% THPS]”, the MIC in assay [1] (Wild Strain General Bacteria, IBF 1:1 biocide:biochelant) is on record as 1000 ppm; in [5] (Wild Strain SRB, IBF 1:1 biocide:biochelant) it was 1000 ppm; in assay [2] (Wild Strain APB, IBF 1:1 biocide:biochelant) it was 62.5 ppm. The “maximum MIC reduction” value in assay [3] came out at 97%.
